One assay deals with ERK of Th17 cells. As to the kind of experiment: pERK expression in Th17 cells by western blotting. The assay is classed as cell-based, mouse. Particulars: Th17 cells stimulated with halofuginone, FIG. 3C. Here is the method:
To examine whether halofuginone activates the ERK of Th17 cells, western blotting was performed for pERK in the cells under the condition of Example <2-1>. To this end, the Th17 cells were lysed in a lysis buffer [20 mM Tris-HCl (pH 7.5), 150 mM NaCl, 1% Triton X-100, 1 mM EDTA, 1 mM EGTA, 1 mM phenylmethylsulfonyl fluoride, 10 mM β-glycerophosphate, 1 mM NaF, 1 mM Na3VO4, and 19 Protease Inhibitow Cocktail™ (Roche Molecular Biochemicals, Indianapolis, Ind., USA)]. From the lysate, an equal amount of the protein (about 20 μg) was separated by sodium dodecyl sulfate-polyacrylamide gel electrophoresis and then transferred to a nitrocellulose membrane. Then, the blots were probed with NFATc1 and phospho-Smad2/3 (all from Santa Cruz Biotechnology), Stat3, Stat5, ERK, phospho-Stat3, phospho-stat5, and phospho-ERK (all from Cell Signaling Technology), and β-actin (Sigma) antibodies, and confirmed by ECL (Amersham, Del., USA).
(Immunoblotting shows a protein as a band on a membrane.)

Assay [1] relates to Th17, Th1 and Th2 cells from splenocytes. As to the kind of experiment: Differentiation of Th17-, Th1-, and Th2 cells from mouse splenocytes by halofuginone treatment. The assay is classed as cell-based. The procedure: (§1) Splenocytes were obtained from mice, that is, the spleens removed from the mice and the spleen tissues were thinly ground using a tearing slide and the red blood cells (RBC) in the splenocytes were removed with the RBC lysis solution. Then, PBS buffer solution was added thereto, and the mixture was centrifuged, and washed to obtain splenocytes. Then, the singe cells (1 ? 10^6) isolated from the spleens were aliquoted into a 24-well plate coated with anti-CD3 antibody (1 μg/mL) were treated under the condition of capable of stimulating Th17 cells (anti-CD28 antibody (1 μg/mL), TGF-β (2 ng/ mL), IL-6 (20 ng/mL), anti-IL-4 (10 μg/mL), and anti-IFN-γ (10 μg/mL); the condition of capable of stimulating Th1 cells (anti-CD28 antibody (1 μg/mL), IL-12 (10 ng/mL), and anti-IL-4 (10 μg/mL)); or the condition of capable of stimulating Th2 cells (anti-CD28 antibody (1 μg/mL), IL-4 (10 ng/mL), and anti-IFN-γ (10 μg/mL)); and the cells were cultured for 3 days, and in particular, cultured after treating the cells with halofuginone at respective concentration and cultured. Specifically, DMSO treatment was used for the control group.

Assay [2] has as its system IL-17 production of T cells via IDO in dendritic cells. As to the kind of experiment: IL-17 ELISA in co-culture of halofuginone-stimulated dendritic cells and T cells. The assay is classed as cell-based. Here is the method:
The dendritic cells cultured for 2 days after stimulating with halofuginone and the T cells cultured for 2 days under the condition of differentiating Th17 cells of <2-2> were co-cultured for 2 additional days, and IL-17 was measured using the supernatant by ELISA. That is, the supernatants of the cell cultures were collected and the amount of IL-17 was measured via sandwich ELISA method. To this end, first, the 96-well plate was treated with monoclonal anti-IL-17 ([…]) and reacted at 4° C. overnight, and upon reaction, non-specific binding was blocked using a blocking solution (1% BSA/PBST). Then, IL-17 in a half amount was diluted continuously and used as standards, and the supernatants of cell cultures were reacted at room temperature for 2 hours. Then, the biotinylated anti-IL-17 were reacted at room temperature for 2 hours, washed 4 times, and added with ExtraAvidin-alkaline phosphatase conjugate after dilution, and reacted at room temperature for 2 hours. Subsequently, PNPP/DEA solution was added thereto to develop color and the absorbance was measured at 405 nm.
In general terms: An ELISA detects its analyte on a solid surface through an enzyme-linked reagent.

Assay [3] relates to osteoclasts (TRAP positive cells) in the joint. Nature of the assay: Osteoclast differentiation potential in the joint of arthritis animal model by TRAP staining. It counts as in vivo, mouse. Particulars: joint of CIA mice, FIG. 4A. The procedure: For the construction of a mouse model with collagen-induced arthritis (hereinafter, referred to as “CIA”), a 6-week old male DBA/1J mouse was subjected to primary immunization by intradermal injection after mixing the bovine type II collagen (hereinafter, referred to as “CII”) and complete Freud's adjuvant (CFA) in an amount of 100 μL, respectively. After a week thereafter, halofuginone was injected intraperitoneally at 3 day intervals at a concentration of 100 μg/kg and 500 μg/kg, respectively (9 weeks).
To examine the osteoclast differentiation potential in the joint of the animal model with arthritis by TRAP staining, the marker enzyme of osteoclasts were subjected to TRAP staining using the leukocyte acid phosphatase Kit (387-A, Sigma, St. Louis, Mo., USA) according to the manufacturer's manual. The cells having at least 5 nuclei among the TRAP positive cells (red color) were regarded as osteoclasts.

The next assay relates to Th17 cells. As to the kind of experiment: mRNA expression of IL-17, CCR6, SOCS3 and Foxp3 in Th17 cells by real-time PCR. It counts as cell-based, mouse. Particulars: FIG. 3B. Here is the method:
The real-time PCR was performed using the LightCycler 2.0 System Instrument and the reaction compounds were prepared by mixing 1 μL of each cDNA, 10 μL of premix Ex Taq as an enzyme for the initiation, and each primer pair to a final volume of 20 μL using distilled water. The reaction conditions were: reacted at 95° C. for 10 minutes, followed by a total of 50 cycles consisting of denaturation at 95° C. for 10 seconds, annealing at 60° C. for 5 seconds, and extension at 72° C. for 10 seconds. The values of cycle threshold (Ct) were analyzed and the amount of mRNA expression for each target was indicated in terms of the amount of beta-actin mRNA expression and the relative quantity. The primers used are shown below.
as §1
The expression of IL-17, CCR6, SOCS3, and Foxp3 in the cells under the condition of Example <2-2> was analyzed by real-time PCR as described in Example <1-6>. The primers used are shown below.
(Real-time PCR tracks product formation cycle by cycle.)

Setting [4] is: condition of differentiating Th17 cells, 3 days, vs DMSO, FIG. 3A.

From patent publication US20160220567A1, “COMPOSITION FOR TREATING OR PREVENTING BONE DISEASES, COMPRISING HALOFUGINONE AS ACTIVE INGREDIENT” (THE CATHOLIC UNIVERSITY OF KOREA INDUSTRY-ACADEMIC …, priority 2013, published 2016) come the findings set out here.

In the case of `O=C(C[C@H]1NCCC[C@@H]1O)Cn1cnc2cc(Br)c(Cl)cc2c1=O` (racemic) [halofuginone], the “expression of pERK” value in the assay with ERK of Th17 cells is given as “increased”. Besides, in assay [1] (setting [4]), the Th17 cells result is recorded as “inhibited” and the Treg cells entry is given as “increased”. Moreover, the “production of IL-4” value in assay [1] (conditions of differentiating Th1 cells, IFN-gamma, and Th2 cells) is given as “did not affect”. For the same molecule, in assay [2] (FIG. 3D legend), the “IDO expression in dendritic cells” value is “increase”. In addition, the “production of IL-17” value in assay [2] (T cells co-cultured with dendritic cells co-stimulated with 1-MT (an IDO inhibitor) and halofuginone) is “no decrease”. Also, in assay [2] (T cells co-cultured with dendritic cells stimulated with halofuginone, FIG. 3D), the “production of IL-17” value is “decrease”. In addition, in assay [3], the “number of TRAP positive cells” value was “decreased”. Further, in the assay on Th17 cells, the “expression of CCR6” value was “inhibits”, the “expression of Foxp3” value was “increasing”, the “expression of IL-17” value was “inhibits” and the “expression of SOCS” value is listed as “increasing”.
